Data: patent US20260083789A1, “FORMULATION FOR STIMULATING HAIR GROWTH AND IMPROVING QUALITY AND METHOD OF PREPARATION OF THE SAME” (ARJUNA NATURAL PRIVATE LIMITED, priority 2022, published 2026)

Columns and labels:
[1] = system: Human dermal fibroblasts (HDFa) cells; assay: MTT assay, cell viability / proliferation; type: cell-based; conditions: HDFs
Experimental: Human dermal fibroblasts (HDFa) cells were maintained in DMEM high glucose media (Himedia) with 10% FBS and 40 units/ml of penicillin & 40 μg/mL of streptomycin (Thermo Fisher) in 37° C. humidified chamber with 5% CO2. Cells were passaged after every 2-3 days using trypsin-EDTA.
Cells were trypsinized, centrifuged and resuspended in culture medium. Cells and then counted by trypan blue method using haemocytometer and plated at 5000 cells per 50 μl into wells of a 96 well microtiter plate. The cells were then incubated overnight under conditions appropriate for the cell line for adherence. […] 10 μl MTT reagent was then added to each well, after respective time period followed by incubation for 4 hours. After 4 hours, when the purple precipitate was clearly visible under the microscope, supernatant was removed carefully by pipette and 100 μl of solubilization solution (DMSO) was added to all wells. The plate was shaken softly for 20 minutes in the dark at room temperature. Then, the absorbance was taken of each well, including the blanks, at 570 nm with reference wavelength at 630 nm in a microtiter plate reader. The average values were determined from triplicate readings and subtracted the average value for the blank.

HDFs = assay: In vitro cell based scratch assay (wound healing); set-up: species or system human; conditions: negative control 89.798 %
Experimental: In vitro cell based scratch assay is one of the most apt and economic procedures for preliminary examination of wound healing potential of any medicinal extract. […] Cell migration was monitored at 0 hour, 24 hours and 48 hours and wound closure distance was calculated by Image J software.

SMILES: Nc1cc(N2CCCCC2)nc(N)[n+]1[O-] [Minoxidil, 2,4-diamino-6 piperidino-pyrimidine-3-oxide]
- time at which cell proliferation peaked [1]: 72 h
- time to show efficacy / increase the rate of cell proliferation [1]: 48 h
- cell proliferation in relation to concentration ([1]; in contrast to the extract): increased cell proliferation at lower concentrations
- closure of the gap created by the scratch (HDFs): 89.358%
